Series [1] in a line: Solubility in nonpolar solvents. Format: physicochemical. Particulars: compared with taurine homologue. As for the experimental part:
(§1) The chlorinaton and desalting methodology was essentially similar to that for taurine. […] Final isolation was from 50/50 (^v/v) diethylether-methanol plus dichloromethane, followed by slow evaporation at approximately 0-4° C. M.P. 197° C.; UV: λmax 308 (ε1.486×10^2, 95% ethanol); ^1Hmr (D2O) δ: 2.05-2.15 (2H, m, αCH2), 2.95-3.05 (2H, m, βCH2), 3.9-4.0 (2H, m, γCH2); MS (es−): 205.9(1.4%), 207.9(0.88%), 210.0(0.31%).

Series [2] is described as follows: Stability on storage and in water or solvents (TLC and NMR monitoring). Format: physicochemical. As for the experimental part:
Taurine (1.5 g) was suspended in a mixture of methanol (50 mL) and 4 M aqueous hydrochloric acid (25 mL). To this was added in small aliquots 4-6% aqueous sodium hypochlorite (40 mL) with stirring. The taurine dissolved with evolution of gentle heat. After 2 h the solution was concentrated (below 30° C.) to a small volume. Ethanol (200 mL) was added and the precipitated sodium chloride was removed by filtration. This procedure was repeated until no more precipitate formed. After concentration to a small volume of oily residue, 50/50 methanol-ethyl acetate (100 mL) was added, and the mixture was again filtered to remove residual sodium chloride. Upon reconcentration, the residue was treated with 0.04 M aqueous hydrochloric acid in acetone (25 mL). Slow concentration yielded white, iridescent plates, (0.7 g). […] Detection was by spraying with 2% KI-starch (yellow-brown) followed by ethanolic ninhydrin (faintly pink); M.P. 148° C. UV (λmax) 310 nm (ε1.851×10^2, 95% ethanol); ^1Hmr (D2O) 3.05-3.2(2H, m) and 3.95-4.05(2H, m); MS (es−): 191.9(18.76%), 193.8 (13.41%), 195.8(2.83%).
as §1
N,N-dichloro-GABA: UV: λmax 308 nm (ε2.974×10^2, 95% ethanol); ^1Hmr (CDCl3) δ: 1.95-2.05 (2H, m,αCH2), 2.4-2.5 (2H, m, βCH2), 3.6-3.75 (2H, m, γCH2). Decomposition in water was about 50% in 3 h at room temperature (TLC monitored). […]
The procedure for the synthesis of N′N′-dichloro-leucine was identical to that for the dichloroGABA. The product is a pale-yellow oil. When stored in dichloromethane, at −10° C.; the compound readily decomposed with an approximate half-life of 1 h.
From the above Examples it is apparent that dichlorination of ω-amino acids yields products which vary considerably in their stability. […] The most important precaution required for stable storage is the removal of all traces of water. […] A yield of between 30-60% was obtained, which can be improved by more efficiently exploiting the fact that primary amines are far less soluble than their chlorinated products in non-polar solvents. Those of ordinary skill in the art will recognize that the methods for isolation of the chlorinated amino acids described here can be extended to other α-carboxyl amino acids, as well as peptides and proteins.

In series [3] the test system is mice. Particulars: mice (20 g), 200 mg/Kg.
Method: Two other mice (20 g) received dichlorotaurine (0.1 mL=100 mg/Kg) s.c. at 60 min intervals for three hours.

The values that follow come from patent US6451761B1, “N′N′-dichlorinated omega-amino acids and uses thereof” (Queen's University at Kingston, priority 1999, dated 2002).

Usually melting point stands for the temperature of the solid-liquid transition.

`O=S(=O)(O)CCCN(Cl)Cl` [dichlorohomotaurine, N,N-dichlorohomotaurine]: the melting point was determined as 197 °C. The “solubility in nonpolar solvents” value in series [1] is “more soluble in nonpolar solvents”. The hygroscopicity entry in series [2] is listed as “Fairly hygroscopic”. The “stability in a humid atmosphere” value in series [2] (humid atmosphere, compared with taurine homologue) is reported as “more unstable than its taurine homologue”. Moreover, the half-life in series [2] (in water, read-out: t1/2 of decomposition to homotaurine (converted)) is 24 h. Also, the behaviour following injection entry in series [3] is reported as “almost indistinguishable from that observed with the taurine homologue”.
